Laboratory results taken from publication PMC10857328, “Utilization of Biopolymer-Based Lutein Emulsion as an Effective Delivery System to Improve Lutein Bioavailability in Neonatal Rats” (Nutrients, 2024).

Legend:
[1] = Acute dosing study: tissue lutein profiles; assay type: in vivo, neonatal Sprague-Dawley rats; conditions: single oral dose, 10 mg/kg, free lutein or emulsion
Description: To determine the bioavailability of lutein in neonatal Sprague-Dawley rats, an acute dosing study was conducted. The procedure was approved by the Institutional Animal Care and Use Committee of the University of Alabama (Number: 21-08-4864, 23 September 2021). On postnatal day 10 (P10), neonatal rats were randomly selected from litters and received a single dose of either free lutein (i.e., lutein ester dissolved in olive oil) or lutein emulsion, both containing 10 mg/kg body weight of lutein. The dose was administered to the pup’s mouth via a pipette. The concentration of lutein ester in the oil phase was 0.004 g/mL. The lutein dosage was selected based on our pilot study and previous studies. It is higher than the dosage used in human newborns but is considered acceptable and safe to be used in pharmacokinetic studies in rodent models. At 0.5 h, 1 h, 2 h, 4 h, 6 h, 12 h, and 24 h after dosing, pups (n = 3/time point/group) were euthanized, and blood, liver, spleen, brain, and eye were collected. Serum was obtained by centrifuging blood samples and tissues were stored at −80 °C until time of analysis. A group of rat pups (n = 3) not receiving treatments were used to measure the baseline lutein concentrations. Throughout the study, maternal rats consumed a purified diet with no lutein (D19120501, Research Diets Inc, New Brunswick, NJ, USA) (Table 1).
Serum and tissue lutein concentration was determined using an ultra-performance liquid chromatography (UPLC) system (Waters, Milford, MA, USA) equipped with a photo-diode array detector (PDA)/MS/MS, according to our well-established methods with slight modification. As for the serum, 100 μL of the sample was incubated with 2 mL of 100% ethanol at room temperature for an hour for lipid extraction. For the tissues, ~0.1 g of the sample was weighed, homogenized, and incubated with 2 mL of 100% ethanol at room temperature for an hour. An amount of 1 mL of 5% (w/v) potassium hydroxide was added to the sample and incubated in a water bath at 60 °C for 45 min for saponification. […]

[2] = Daily dosing studies: body and tissue weights, observable illness; assay type: in vivo, neonatal Sprague-Dawley rats; conditions: daily oral administration, 2 mg/kg, P5-P18, both daily dosing studies
Description: To determine the effects of daily consumption of CTA-stabilized lutein emulsion on tissue lutein status, two daily dosing studies were conducted. The procedures were approved by the Institutional Animal Care and Use Committee of the University of Alabama (Number: 21-02-4373, 4 February 2021). For daily dosing study 1 (Figure 1B), on P5, rat pups (n = 8–9/group) were randomly selected from the litters and received an oral dose of either free lutein (i.e., lutein ester dissolved in olive oil) or lutein emulsion both containing 2 mg/kg body weight of lutein. […] Dosing was repeated daily until P18. The dosage was determined from previous research in both rodent and human newborns and was also established as an Acceptable Daily Intake for lutein by the Joint Food and Agricultural Organization/World Health Organization. On P19, pups were euthanized. Rats are known to wean between P19 and P21 [47]. Blood from vena cava, liver, spleen, brain, eye, kidney, lung, white adipose tissue (WAT), and brown adipose tissue (BAT) were collected. Blood samples were centrifuged to obtain serum. Serum and collected tissues were frozen at −80 °C until analysis.
To mimic the human dietary intake of lutein, daily dosing study 2 was conducted (Figure 1C). […]

CC1=C[C@H](O)CC(C)(C)[C@H]1/C=C/C(C)=C/C=C/C(C)=C/C=C/C=C(C)/C=C/C=C(C)/C=C/C1=C(C)C[C@@H](O)CC1(C)C [lutein, Lutein]
Earliest time point for lutein to be detectable in brain [1]: 12 h | Earliest time point for lutein to be detectable in eye [1]: 24 h | Earliest time point for lutein to be detectable in spleen [1]: 6 h | Observable illness in the pups [2]: no observable illness
